Data reported in patent publication US9023789B2, “Amylin analogs and pharmaceutical compositions thereof” (Novo Nordisk A/S, priority 2012, dated 2015).
Numbered stars: 1 amine (or outer) side, 2 acyl side, 3 side chain; on linkers, the order of the positions; unused ones are H or OH. Bridge positions count the residues as written; N and C are the ends. Side chains are listed from the residue outwards. Peptide text beside a SMILES is read from it. * marks the point of attachment. C20 diacid = O=C(O)CCCCCCCCCCCCCCCCCCC(=O)*; γGlu = O=C(O)[C@H](CCC(=O)[*:2])N[*:1]

Assays:
[1] = ASSAY (III) ThT fibrillation assay for physical stability; type: physicochemical
Outline: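 Physical stability scored by ThT fluorescence (444 nm excitation, 485 nm emission) tracked every 20 min during 37 °C incubation with 960 rpm shaking, ThT at 1 μM final. Values are replicate means with SD at chosen times; HPLC against pramlintide standard gives initial and post-assay soluble concentrations.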

Sprague Dawley (SD) rats = assay: ASSAY (I) efficacy testing on appetite (food intake) using an ad libitum fed rat model; type: in vivo; conditions: rat
Description: Sprague Dawley (SD) rats from Taconic Europe, Denmark are used for the experiments. The rats have a body weight 200-250 g at the start of experiment. The rats arrive at least 10-14 days before start of experiment to allow acclimatization to experimental settings. During this period the animals are handled at least 2 times. After arrival rats are housed individually for one week in a reversed light/dark phase (meaning that lights are off during daytime and on during nighttime) for two weeks. Since rats are normally active and eat their major part of their daily food intake during the dark period, rats are dosed in the morning right before lights are turned off. This set-up results in the lowest data variation and highst test sensitivity. The experiment is conducted in the rats' home cages and rats have free access to food and water throughout the acclimatization period and the experiment period. Each dose of derivative is tested in a group of 5-8 rats. A vehicle group of 6-8 rats is included in each set of testing. Rats are dosed once according to body weight with a 0.01-3 mg/kg solution administered intraperitoneally (ip), orally (po) or subcutaneously (sc). The time of dosing is recorded for each group. After dosing, the rats are returned to their home cages, where they then have access to food and water. The food consumption is recorded individually continuously by online registration or manually every hour for 7 hours, and then after 24 h and sometimes 48 h. At the end of the experimental session, the animals are euthanized.
The individual data are recorded in Microsoft excel sheets. Outliers are excluded after applying the Grubbs statistical evaluation test for outliers, and the result is presented graphically using the GraphPad Prism program.

ThT pH 4.0 lag time (h) [1] [h] | SMILES | Food intake reduction 0-24 h 30 nmol/kg (%) (Sprague Dawley (SD) rats; 0-24 h) | Food intake reduction 24-48 h 30 nmol/kg (%) (Sprague Dawley (SD) rats; 24-48 h) | Food intake reduction 0-24 h 3 nmol/kg (%) (Sprague Dawley (SD) rats; 3 nmol/kg, 0-24 h) | Food intake reduction 24-48 h 3 nmol/kg (%) (Sprague Dawley (SD) rats; 3 nmol/kg, 24-48 h)
21 | CC[C@H](C)[C@H](NC(=O)[C@H](C)NC(=O)CNC(=O)[C@H](Cc1ccccc1)NC(=O)[C@H](CC(N)=O)NC(=O)[C@@H]1CCCN1C(=O)[C@H](CO)NC(=O)[C@H](CO)NC(=O)[C@H](Cc1c[nH]cn1)NC(=O)[C@H](CCCNC(=N)N)NC(=O)[C@H](CC(C)C)NC(=O)[C@H](Cc1ccccc1)NC(=O)[C@H](CC(N)=O)NC(=O)[C@H](C)NC(=O)[C@H](CC(C)C)NC(=O)[C@H](CCCNC(=N)N)NC(=O)[C@H](CCC(N)=O)NC(=O)[C@@H](NC(=O)[C@H](C)NC(=O)[C@@H]1CSSC[C@H](NC(=O)[C@@H](N)CCCCNC(=O)CC[C@H](NC(=O)CCCCCCCCCCCCCCCCCCC(=O)O)C(=O)O)C(=O)N[C@@H](CC(N)=O)C(=O)N[C@@H]([C@@H](C)O)C(=O)N[C@@H](C)C(=O)N[C@@H]([C@@H](C)O)C(=O)N1)[C@@H](C)O)C(=O)N1CCC[C@H]1C(=O)N[C@@H](CO)C(=O)N[C@@H](CO)C(=O)N[C@H](C(=O)N[C@@H](CC(N)=O)C(=O)N[C@H](C(=O)NCC(=O)N[C@@H](Cc1c[nH]cn1)C(=O)N[C@@H](CC(N)=O)C(=O)N[C@H](C(=O)N[C@@H](Cc1ccc(O)cc1)C(N)=O)[C@@H](C)O)C(C)C)[C@@H](C)O [Example 77] | 40 | 16 | – | –
10 | CC[C@H](C)[C@H](NC(=O)[C@H](C)NC(=O)CNC(=O)[C@H](Cc1ccccc1)NC(=O)[C@H](CC(N)=O)NC(=O)[C@@H]1CCCN1C(=O)[C@H](CO)NC(=O)[C@H](CO)NC(=O)[C@H](Cc1c[nH]cn1)NC(=O)[C@H](CCCNC(=N)N)NC(=O)[C@H](CC(C)C)NC(=O)[C@H](Cc1ccccc1)NC(=O)[C@H](CC(=O)O)NC(=O)[C@H](C)NC(=O)[C@H](CC(C)C)NC(=O)[C@H](CCCNC(=N)N)NC(=O)[C@H](CCC(N)=O)NC(=O)[C@@H](NC(=O)[C@H](C)NC(=O)[C@@H]1CSSC[C@H](NC(=O)[C@@H](N)CCCCNC(=O)CC[C@H](NC(=O)CC[C@H](NC(=O)CCCCCCCCCCCCCCCCCCC(=O)O)C(=O)O)C(=O)O)C(=O)N[C@@H](CC(N)=O)C(=O)N[C@@H]([C@@H](C)O)C(=O)N[C@@H](C)C(=O)N[C@@H]([C@@H](C)O)C(=O)N1)[C@@H](C)O)C(=O)N1CCC[C@H]1C(=O)N[C@@H](CO)C(=O)N[C@@H](CO)C(=O)N[C@H](C(=O)N[C@@H](CC(N)=O)C(=O)N[C@H](C(=O)NCC(=O)N[C@@H](CO)C(=O)N[C@@H](CC(=O)O)C(=O)N[C@H](C(=O)N[C@@H](Cc1ccc(O)cc1)C(N)=O)[C@@H](C)O)C(C)C)[C@@H](C)O [Example 2] (H-K([γGlu-γGlu-C20 diacid])CNTATCATQRLADFLRHSSPNFGAIPSSTNVGSDTY-NH2; disulfide 2-7; N-terminus assumed) | 72 | 62 | 39 | 10
45 | CC[C@H](C)[C@H](NC(=O)[C@H](C)NC(=O)CNC(=O)[C@H](Cc1ccccc1)NC(=O)[C@H](CC(N)=O)NC(=O)[C@@H]1CCCN1C(=O)[C@H](CO)NC(=O)[C@H](CO)NC(=O)[C@H](Cc1c[nH]cn1)NC(=O)[C@H](CCCNC(=N)N)NC(=O)[C@H](CC(C)C)NC(=O)[C@H](Cc1ccccc1)NC(=O)[C@H](CC(N)=O)NC(=O)[C@H](C)NC(=O)[C@H](CC(C)C)NC(=O)[C@H](CCCNC(=N)N)NC(=O)[C@H](CCC(N)=O)NC(=O)[C@@H](NC(=O)[C@H](C)NC(=O)[C@@H]1CSSC[C@H](NC(=O)[C@@H](N)CCCCNC(=O)CC[C@H](NC(=O)CCCCCCCCCCCCCCCCC(=O)O)C(=O)O)C(=O)N[C@@H](CC(N)=O)C(=O)N[C@@H]([C@@H](C)O)C(=O)N[C@@H](C)C(=O)N[C@@H]([C@@H](C)O)C(=O)N1)[C@@H](C)O)C(=O)N1CCC[C@H]1C(=O)N[C@@H](CO)C(=O)N[C@@H](CO)C(=O)N[C@H](C(=O)N[C@@H](CC(N)=O)C(=O)N[C@H](C(=O)NCC(=O)N[C@@H](Cc1c[nH]cn1)C(=O)N[C@@H](CC(N)=O)C(=O)N[C@H](C(=O)N[C@@H](Cc1ccc(O)cc1)C(N)=O)[C@@H](C)O)C(C)C)[C@@H](C)O [Example 113] | 48 | 2 | – | –
45 | CC[C@H](C)[C@H](NC(=O)[C@H](C)NC(=O)CNC(=O)[C@H](Cc1ccccc1)NC(=O)[C@H](CC(N)=O)NC(=O)[C@@H]1CCCN1C(=O)[C@H](CO)NC(=O)[C@H](CO)NC(=O)[C@H](Cc1c[nH]cn1)NC(=O)[C@H](CCCNC(=N)N)NC(=O)[C@H](CC(C)C)NC(=O)[C@H](Cc1ccccc1)NC(=O)[C@H](CCC(=O)O)NC(=O)[C@H](C)NC(=O)[C@H](CC(C)C)NC(=O)[C@H](CCCNC(=N)N)NC(=O)[C@H](CCC(N)=O)NC(=O)[C@@H](NC(=O)[C@H](C)NC(=O)[C@@H]1CSSC[C@H](NC(=O)[C@@H](N)CCCCNC(=O)CC[C@H](NC(=O)CC[C@H](NC(=O)CCCCCCCCCCCCCCCCCCC(=O)O)C(=O)O)C(=O)O)C(=O)N[C@@H](CC(N)=O)C(=O)N[C@@H]([C@@H](C)O)C(=O)N[C@@H](C)C(=O)N[C@@H]([C@@H](C)O)C(=O)N1)[C@@H](C)O)C(=O)N1CCC[C@H]1C(=O)N[C@@H](CO)C(=O)N[C@@H](CO)C(=O)N[C@H](C(=O)N[C@@H](CC(N)=O)C(=O)N[C@H](C(=O)NCC(=O)N1CCC[C@H]1C(=O)N[C@@H](Cc1c[nH]cn1)C(=O)N[C@H](C(=O)N[C@@H](Cc1ccc(O)cc1)C(N)=O)[C@@H](C)O)C(C)C)[C@@H](C)O [Example 124] (H-K([γGlu-γGlu-C20 diacid])CNTATCATQRLAEFLRHSSPNFGAIPSSTNVGPHTY-NH2; disulfide 2-7 (inferred)) | 73 | 38 | – | –
16 | CC[C@H](C)[C@H](NC(=O)[C@H](C)NC(=O)CNC(=O)[C@H](Cc1ccccc1)NC(=O)[C@H](CC(N)=O)NC(=O)[C@@H]1CCCN1C(=O)[C@H](CO)NC(=O)[C@H](CO)NC(=O)[C@H](Cc1c[nH]cn1)NC(=O)[C@H](CCCNC(=N)N)NC(=O)[C@H](CC(C)C)NC(=O)[C@H](Cc1ccccc1)NC(=O)[C@H](Cc1c[nH]cn1)NC(=O)[C@H](C)NC(=O)[C@H](CC(C)C)NC(=O)[C@H](CCCNC(=N)N)NC(=O)[C@H](CCC(N)=O)NC(=O)[C@@H](NC(=O)[C@H](C)NC(=O)[C@@H]1CSSC[C@H](NC(=O)[C@H](CCCCN)NC(=O)CC[C@H](NC(=O)CCCCCCCCCCCCCCCCCCC(=O)O)C(=O)O)C(=O)N[C@@H](CC(N)=O)C(=O)N[C@@H]([C@@H](C)O)C(=O)N[C@@H](C)C(=O)N[C@@H]([C@@H](C)O)C(=O)N1)[C@@H](C)O)C(=O)N1CCC[C@H]1C(=O)N[C@@H](CO)C(=O)N[C@@H](CO)C(=O)N[C@H](C(=O)N[C@@H](CC(N)=O)C(=O)N[C@H](C(=O)NCC(=O)N[C@@H](CO)C(=O)N[C@@H](CCC(=O)O)C(=O)N[C@H](C(=O)N[C@@H](Cc1ccc(O)cc1)C(N)=O)[C@@H](C)O)C(C)C)[C@@H](C)O [Example 30] ({C20 diacid-γGlu}-KCNTATCATQRLAHFLRHSSPNFGAIPSSTNVGSETY-NH2; disulfide 2-7) | 41 | 17 | – | –
